Test results reported in patent publication US9139524B2, “Fluorinated bridged spiro[2.4]heptane derivatives as ALX receptor agonists” (Actelion Pharmaceuticals Ltd., priority 2012, dated 2015).

Tests used:
human ALX receptor = biological target: T1, human ALX receptor (Homo sapiens, UniProt P25090); experiment: Intracellular calcium measurements (FLIPR), ALX receptor agonistic activity; assay type: cell-based; settings: HEK293-hALXR-Gα16 cells; values normalized to WKYMVm 10 nM; read-out: EC50 (agonistic activity with respect to the ALX receptor)
T1 construct: expressed in transfected cells; host or cells: HEK293 (HEK293-hALXR-Gα16)
T1 sequence (P25090 1-351): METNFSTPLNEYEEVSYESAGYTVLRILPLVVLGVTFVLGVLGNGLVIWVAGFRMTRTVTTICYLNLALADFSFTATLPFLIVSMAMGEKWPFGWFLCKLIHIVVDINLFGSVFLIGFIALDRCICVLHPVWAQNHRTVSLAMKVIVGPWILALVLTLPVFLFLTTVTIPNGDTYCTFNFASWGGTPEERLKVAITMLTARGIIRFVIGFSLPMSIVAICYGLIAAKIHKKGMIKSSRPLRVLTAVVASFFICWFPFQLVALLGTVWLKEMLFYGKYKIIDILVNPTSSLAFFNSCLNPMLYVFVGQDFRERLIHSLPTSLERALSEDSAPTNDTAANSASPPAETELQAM
Protocol: The ALX receptor agonistic activities of the compounds of formula (I) are determined in accordance with the following experimental method.
Cells expressing recombinant human ALX receptor and the G-protein Gα16 (HEK293-hALXR-Gα16) were grown to 80% confluency in Growing Medium (GM). Cells were detached from culture dishes with a cell dissociation buffer (Invitrogen, 13151-014), and collected by centrifugation at 1′000 rpm at rt for 5 min in Assay Buffer (AB) (equal parts of Hank's BSS (Gibco, 14065-049) and DMEM without Phenol Red (Gibco, 11880-028)). After 60 min incubation at 37° C. under 5% CO2 in AB supplemented with 1 μM Fluo-4 (AM) (Invitrogen, F14202) and 20 mM HEPES (Gibco, 15630-056), the cells were washed and resuspended in AB. They were then seeded onto 384-well FLIPR assay plates (Greiner, 781091) at 50′000 cells in 70 μl per well and sedimented by centrifugation at 1′000 rpm for 1 min. Stock solutions of test compounds were made up at a concentration of 10 mM in DMSO, and serially diluted in AB to concentrations required for activation dose response curves. WKYMVm (Phoenix Peptides) was used as a reference agonist. A FLIPR Tetra instrument (Molecular Devices) was operated according to the manufacturer's standard instructions, adding 4 μl of test compound dissolved at 10 mM in DMSO and diluted prior to the experiment in assay buffer to obtain the desired final concentration. Changes in fluorescence were monitored before and after the addition of test compounds at lex=488 nm and lem=540 nm. Emission peak values above base level after compounds addition were exported after base line subtraction. Values were normalized to high-level control (WKYMVm compound, 10 nM final concentration) after subtraction of the base line value (AB addition).

[1] = Determination of pharmacokinetic parameters in rats after single oral or intravenous administration; assay type: in vivo; settings: Wistar, plasma, rat, p.o. 1 mg/kg; for bioavailability: oral, calculated with a reference AUC after iv administration of solutions at 1 mg/kg, read-out: F (bioavailability); for AUC: po, read-out: AUC (area under curve after p.o. administration)
Protocol: The goal of the study was to evaluate the pharmacokinetics of compounds after a single oral administration or after an intravenous route in normal, conscious rats.
• Anaesthesia: Wistar rats were pretreated with 0.03 mg/kg Buprenorphine s.c. (an analgesic-stock solution at 0.03 mg/ml) and 30 minutes later they were anaesthetized with a mixture of 90 mg/kg Ketamine and 10 mg/kg Xylazine i.p. or under Isoflurane inhalation anesthesia. • Rat preparation: The top of the head and the neck were shaved and disinfected with Merfen and Betadine. • Surgery: While under (isoflurane) anaesthesia, an incision was made above 1.5 cm at the top of the head (between the ears) in order to fix the anchor button. A second incision was made above 1.5-2 cm on the neck (near the right clavicle). A catheter (ID/DI: 0.508 mm, Ulrich Swiss) was tunnelled with a trocar under the skin and an access port was fixed with 4-0 silk. The catheter was then filled with a heparinized saline solution (100 Ul/ml), clamped with a hemostat to prevent loss of saline, and the wound was closed with tissue adhesive (3M Vetbond). Next, the jugular vein was isolated and ligated cranially with 4-0 silk, a second ligature, placed caudal to the first ligature, was not tightened. Using iridectomy scissors, a V-shaped hole was cut in the vein, and the catheter was gently pushed into the vessel. All ligatures were then tied around the vessel and the catheters. A NaCl-heparin 100 Ul flush was made to test the blood flow. The wound was then closed with tissue adhesive and a suture. Flush again. • Post operative care: After the operation each animal was housed separately in a small box with food (directly on the floor of the box) and water ad libitum and access to solid drink. One to two days were allowed for recovery from surgery prior to the experiment. The day following the operation, animals were flushed with NaCl-heparin 100 Ul/mL and blood collection tubes were prepared with 10 μl EDTA added to each tube. • Experiment: Tested compounds were given at 1 mg/kg orally and intravenously. The oral formulation was as a solution in Gelatine (98% of a 7.5% Gelatine solution in Water and 2% DMSO) and the intravenous formulation was a solution in water with pH adjustment or in cyclodextrine (5% DMSO, 95% HPBCD30% (w/v)). After application of the test-compound (p.o. or i.v.), blood samples ([…]) were taken at different times. The samples were immediately put in ice before being centrifuged (4° C., 8 min, 16000 g). The plasma was then aspirated and placed into a 96 well plate. The plate was kept at −20° C. until analysis could be performed. • Plasma concentration of the compound was determined using a LC-MS/MS method.

Row | SMILES | EC50 (human ALX receptor) | bioavailability [1] | AUC [1]
1 | O=C(N[C@H]1CCNC[C@H]1F)[C@H]1[C@H](C(=O)NCc2ccc(Br)cc2F)[C@@H]2CC[C@H]1C21CC1 (mixture of isomers) [Example 4, (1S,2R,3R,4R)—N^2-(4-Bromo-2-fluorobenzyl)-N^3-(cis-3-fluoropiperidin-4-yl)spiro[bicyclo[2.2.1]heptane-7,1′-cyclopropane]-2,3-dicarboxamide] | 12.7 nM |  | 
2 | O=C(N[C@@H]1CNC[C@@H]1F)[C@H]1[C@H](C(=O)NCc2ccc(Br)cc2F)[C@@H]2CC[C@H]1C21CC1 (mixture of isomers) [Example 5, (1S,2R,3R,4R)—N^2-(4-Bromo-2-fluorobenzyl)-N^3-(cis-4-fluoropyrrolidin-3-yl)spiro[bicyclo[2.2.1]heptane-7,1′-cyclopropane]-2,3-dicarboxamide] | 300 nM |  | 
3 | O=C(N[C@@H]1CNC[C@H]1F)[C@H]1[C@H](C(=O)NCc2ccc(Br)cc2F)[C@@H]2CC[C@H]1C21CC1 (mixture of isomers) [Example 6, (1S,2R,3R,4R)—N^2-(4-Bromo-2-fluorobenzyl)-N^3-(trans-4-fluoropyrrolidin-3-yl)spiro[bicyclo[2.2.1]heptane-7,1′-cyclopropane]-2,3-dicarboxamide] | 4.5 nM |  | 
4 | O=C(N[C@@H]1CCNC[C@H]1F)[C@H]1[C@H](C(=O)NCc2ccc(Br)cc2F)[C@@H]2CC[C@H]1C21CC1 (single isomer, unassigned; diastereoisomer 1) [Example 2] | 1.9 nM |  | 
5 | O=C(N[C@@H]1CCNC[C@H]1F)[C@H]1[C@H](C(=O)NCc2ccc(Br)cc2F)[C@@H]2CC[C@H]1C21CC1 (single isomer, unassigned; diastereoisomer 2) [Example 3] | 2 nM | 12% | 49.9 ng·h/mL
6 | O=C(NC1CCNCC1(F)F)[C@H]1[C@H](C(=O)NCc2ccc(Br)cc2F)[C@@H]2CC[C@H]1C21CC1 (stereo partly drawn) [Example 1, (1S,2R,3R,4R)—N^2-(4-Bromo-2-fluorobenzyl)-N^3-(3,3-difluoropiperidin-4-yl)spiro[bicyclo[2.2.1]heptane-7,1′-cyclopropane]-2,3-dicarboxamide] | 41 nM |  | 
7 | O=C(NC1CCNCC1)[C@H]1[C@H](C(=O)NCc2ccc(Br)cc2F)[C@@H]2CC[C@H]1C21CC1 [Reference Example 2, (1S,2R,3R,4R)—N^2-(4-Bromo-2-fluorobenzyl)-N^3-(piperidin-4-yl)spiro[bicyclo[2.2.1]heptane-7,1′-cyclopropane]-2,3-dicarboxamide, reference compound] |  | 0.3% | 6.34 ng·h/mL
